In paper PMC12655338, “Reversing the Warburg Effect: YW3-56 Induces Leukemia Differentiation via AKT-Mediated Glucose Metabolic Reprogramming” (Pharmaceuticals, 2025):

Biological target: T1, PAD4 (Protein arginine deiminase 4) (Homo sapiens, UniProt Q9UM07)
T1 construct: gene PADI4
Test: colorimetric PAD4 enzyme assay, citrullination of BAEE
Type: biochemical

T1 sequence (Q9UM07 whole entry): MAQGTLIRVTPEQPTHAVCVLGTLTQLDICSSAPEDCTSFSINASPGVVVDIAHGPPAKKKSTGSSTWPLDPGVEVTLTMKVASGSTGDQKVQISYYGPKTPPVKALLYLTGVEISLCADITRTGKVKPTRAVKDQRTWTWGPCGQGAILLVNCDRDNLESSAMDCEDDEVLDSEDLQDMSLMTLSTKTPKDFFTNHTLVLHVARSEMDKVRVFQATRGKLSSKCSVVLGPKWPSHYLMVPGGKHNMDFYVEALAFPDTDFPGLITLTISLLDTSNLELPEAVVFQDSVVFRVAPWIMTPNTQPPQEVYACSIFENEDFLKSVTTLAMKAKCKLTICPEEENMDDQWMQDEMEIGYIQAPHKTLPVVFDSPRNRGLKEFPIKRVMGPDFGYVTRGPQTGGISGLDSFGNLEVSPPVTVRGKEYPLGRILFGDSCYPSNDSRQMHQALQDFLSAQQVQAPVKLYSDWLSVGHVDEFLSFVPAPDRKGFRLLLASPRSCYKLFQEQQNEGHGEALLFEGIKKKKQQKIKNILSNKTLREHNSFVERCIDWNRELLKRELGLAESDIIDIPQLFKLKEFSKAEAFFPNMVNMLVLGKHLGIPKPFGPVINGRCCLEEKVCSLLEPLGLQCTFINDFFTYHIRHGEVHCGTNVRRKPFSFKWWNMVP

Work on CN(C)c1ccc2cc(C(=O)N[C@@H](CCCNC(=N)CCl)C(=O)NCc3ccccc3)ccc2c1 [YW3-56] yielded an IC50 of 4.1 ± 0.28 µM.
